We go through nine substances from US10487307B2, “Culture method for pluripotent stem cells” (FUJIFILM CORPORATION, priority 2013, dated 2019).

One assay has as its system human iPS cells. Description: Cell adhesiveness evaluation 2 (synthetic peptides added to cells seeded on natural vitronectin). The note with it: for adhesion of cells to the natural vitronectin on addition of peptide: 100 μM synthetic polypeptide; for Cell adhesion rate (%): 100 μM synthetic polypeptide in cell suspension, natural vitronectin surface 130 pmol/cm^2, 24 hours, no peptide = 100%, n=3. It is filed as cell-based. The procedure: The polypeptides shown in Table 8 were synthesized by an Fmoc solid-phase synthesis method. A surface onto which natural vitronectin was adsorbed at a concentration of 130 pmol/cm^2 was prepared, and then a cell suspension to which 100 μM of the aforementioned synthetic polypeptides were added was seeded into wells at a ratio of 30,000 cells/well. The number of adhesive cells 24 hours after seeding was calculated in the same manner as in <Cell adhesiveness evaluation 1>, and the results are shown in Table 8. In Table 8, the cell adhesion rate is expressed as a ratio calculated by regarding the cell adhesion rate obtained by using a culture solution not containing the synthetic polypeptides as being 100%. n=3.

A further assay deals with human iPS cells ("Tic"). As to the kind of experiment: Cell adhesiveness evaluation 1 (ALP activity of adhesive iPS cells). The note with it: added amount 3.2 μg/cm^2; 30,000 cells/well, 24 hours; natural vitronectin (sample 15) = 100%. Format: cell-based. On the procedure: The cell adhesiveness of human iPS cells (“Tic”: Cell No. JCRB 1331: from National Institute of Biomedical Innovation. [567-0085, 7-6-8 Asagi Saito Ibaraki-City Osaka]) with respect to the aforementioned polypeptides was evaluated in the following manner.
As feeder cells for retaining the human iPS cells, EmbryoMax (registered trademark) (early mouse embryonic fibroblasts: resistant to hygromycin, treated with mitomycin C, derived from C57/BL6, third passage) (Millipore Corporation) was used. By using DMEM (Invitrogen) and a 10% (v/v) fetal bovine serum medium, the feeder cells were cultured for 24 hours and attached to a T25 flask (Corning Incorporated). As a medium for the human iPS cells, the one obtained by adding FGF-2 (Sigma-Aldrich Co, LLC.) to a medium composed as shown in Table 6 at a final concentration of 10 ng/ml was used.
By using the aforementioned medium, the human iPS cells were retained and cultured in a 5% (v/v, the same unit will be used hereinafter) CO2 incubator at 37° C. Except for the day after the seeding of the iPS cells, the medium was replaced every day. The subculture operation was performed by exfoliating the cells by using Dispase II (neutral protease Grade II, Roche) and separating the cells in an appropriate size by a pipetting operation.
The iPS cells cultured as described above were treated with TrypLE Select (Invitrogen) for 5 minutes at 37° C. and separated into a single cell. After being subjected to centrifugation for 2 minutes at 300 rpm, the cells were collected and suspended in TeSR2 (a medium not containing a heterogeneous animal-derived component and a serum component, STEMCELL Technologies.) containing Y-27362 ((R)-(+)-trans-N-(4-pyridyl)-4-(1-aminoethyl)-cyclohexane carboxamide.2HCl.H2O, an Rho binding kinase inhibitor, Wako Pure Chemical Industries, Ltd.) at a final concentration of 10 μM.
Each of RCP-1 to RCP-11, RCP-21, RCP-25, and RCP-26 as control, human vitronectin (extracted from human serum, BD Biosciences), and recombinant laminin (rLaminin-5: Oriental Yeast Co., ltd. and Human Recombinant Laminin-511: BIOLAMINA AB) was added to and suspended in a predetermined buffer (a dialysis buffer used in <GRAVY value and aggregation characteristics> described above for RCP-1 to RCP-11, and PBS for RCP-21, RCP-25, human vitronectin, and recombinant laminin) at the concentration shown in Table 7, thereby preparing samples 1 to 17. The samples were added to the respective wells of a 96-well plate and adsorbed onto the plate by being held for 2 hours at 37° C.
Into the respective wells of the 96-well plate treated with the peptides, iPS cells were seeded at a cell density of 30,000 cells/well. After the cells were cultured for 24 hours, the nonadhesive cells were washed off with PBS, and only the adhesive cells were immobilized by using 4% (v/v) paraformaldehyde (Wako Pure Chemical Industries, Ltd.). By using an Attophos (registered trademark) AP Fluorescent Substrate System (Promega Corporation), the ALP activity was calculated, and from the calibration curve, the number of undifferentiated iPS cells having the ALP activity was calculated. In Table 7, the cell adhesion rate is expressed as a ratio calculated by regarding the cell adhesion rate obtained from the sample 15 using natural vitronectin as being 100%. n=3.

Take “DKKCQCDELCSYYQSCCTDY (Peptide designed for comparative tests (Peptide-4))”: in the assay on human iPS cells, the “adhesion of cells to the natural vitronectin on addition of peptide” value (from here on “adhesion of cells”) was “significantly hindered” and the “Cell adhesion rate (%)” value is listed as 63.8 ± 11.6%.

Regarding “DQESCKGRCTEGFNVDKKCQ (Peptide designed for comparative tests (Peptide-1))”, in the assay on human iPS cells, the “adhesion of cells” value is “not hindered” and the “Cell adhesion rate (%)” value worked out at 91.8 ± 1.2%.

Turning to “CCTDYTAECKPQVTRGDVFT (Peptide designed for comparative tests (Peptide-5))”, in the assay with human iPS cells, the “adhesion of cells” value was “significantly hindered” and the “Cell adhesion rate (%)” value amounted to 70.5 ± 7.1%.

Turning to “TAECKPQVTRGDVFTMPEDE (Peptide designed for comparative tests (Peptide-6))”, in the assay with human iPS cells, the “adhesion of cells” value is “significantly hindered” and the “Cell adhesion rate (%)” value is recorded as 52.7 ± 10.3%.

Consider “EGFNVDKKCQCDELCSYYQS (Peptide designed for comparative tests (Peptide-3))”, for which, in the assay on human iPS cells, the “adhesion of cells” value is listed as “not hindered” and the “Cell adhesion rate (%)” value was found to be 102.5 ± 4.2%.

For “CCTDYTAECKPQVTRGEVFT (Peptide designed for comparative tests (Peptide-7))”, in the assay on human iPS cells, the “adhesion of cells” value was “not hindered” and the “Cell adhesion rate (%)” value is on record as 86.7 ± 7.1%.

In the case of “rLaminin-5: recombinant laminin (rLaminin-5: Oriental Yeast Co., ltd.)”, the “Cell adhesion rate (%)” value with human iPS cells ("Tic") is recorded as 155.7%.

Turning to “KGRCTEGFNVDKKCQCDELC (Peptide designed for comparative tests (Peptide-2))”, in the assay on human iPS cells, the “adhesion of cells” value was “not hindered” and the “Cell adhesion rate (%)” value is on record as 92.7 ± 19.6%.

In the case of “TAECKPQVTRGEVFTMPEDE (Peptide designed for comparative tests (Peptide-8))”, in the assay on human iPS cells, the “adhesion of cells” value is reported as “not hindered” and the “Cell adhesion rate (%)” value stood at 83.8 ± 14.8%.
